Laboratory results as given in patent US20130310374A1, “Substituted Imidazoquinoline Derivatives” (PIRAMAL ENTERPRISES LIMITED`, priority 2010, published 2013).

Experiments:
[1] = system: MDA MB 468; test: Cytotoxicity propidium iodide assay, MDA MB 468; format: cell-based; details: Homo sapiens; MDA MB 468 (breast), 48 hours treatment; read-out: IC50 Values in μM, C3b
Summary of the method: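 Following a 48 h treatment with various compound concentrations, cells plated at 3000 per well were stained with […] propidium iodide and frozen overnight. Fluorescence after thawing gave percent viability against untreated controls, from which IC50 values were calculated.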

[2] = system: hPBMC; test: MTS toxicity assay in parallel to anti-CD3/anti-CD28 cytokine assay; format: cell-based, human; details: anti-CD3/anti-CD28 experiment
Experimental: hPBMC stimulation: Peripheral blood was collected from normal healthy volunteers after informed consent. Peripheral blood mononuclear cells (hPBMC) were harvested using Ficoll-Hypaque density gradient centrifugation (1.077 g/mL; Sigma Aldrich). hPBMCs were resuspended in RPMI 1640 culture medium (Gibco BRL, Pasley, UK) containing 10% FCS, 100 U/mL penicillin (Sigma Chemical Co. St Louis, Mo.) and […] streptomycin (Sigma Chemical Co. St Louis, Mo.) at 1.25×10^6 cells/mL of assay medium. 2.5×10^5 hPBMCs were added per well of 96-well plate coated with or without anti-CD3/anti-CD28 mAbs. Simultaneously, 0.025 μM of compounds of the present invention or 0.5% DMSO (vehicle control) were added to appropriate wells. The cells were then incubated for 18 hours at 37° C., 5% CO2 following which supernatants were collected, stored at […] and assayed later for TNF-α, IL-6 and IFN-γ by ELISA (OptiEIA ELISA sets; BD Biosciences). In every experiment, each condition was run in triplicate wells. In all experiments, the toxicity of test compounds was ascertained, in parallel, using the MTS (3-(4,5-dimethylthiazol-2-yl)-5-(3-carboxymethoxyphenyl)-2-(4-sulfonyl)-2H-tetrazolium) assay as described in Am. J. Physiol. Cell Physiol., 2003, 285, C813-C822.

[3] = system: human PC3 xenograft tumors; test: Prostate cancer xenograft model (tumor growth inhibition in vivo); set-up: species or system mouse; details: SCID mice, 3 mpk p.o. (Example 3a once daily and BID; Example 19 once daily), 15 days; FIG. 3A
Experimental: Animals: Severe combined immunodeficient (SCID) mice (Male and Female) 6 to 8 weeks old, were used. Animals were housed in suitable cages under specified pathogen-free conditions in rooms maintained at 23° C. and 50% humidity, with a 12-hour light/12-hour dark cycle. The mice were quarantined during the acclimatization period of at least a week.
Prostate cancer xenograft model: PC3 (human prostate cancer) cell line (ATCC) was maintained in RPMI 1640 (Gibco BRL, Pasley, UK) supplemented with 10% (v/v) FBS. The cells were incubated at 37° C. in a humidified atmosphere containing 5% CO2. Cells were passaged using trypsin/EDTA for cell detachment once every 3 days. On the day of tumor cell injection, cells were detached from the flasks with trypsin/EDTA, washed once in medium and re-suspended in serum free RPMI 1640 at 5 million cells/0.2 mL volume, and placed on ice. […]
Procedure: Tumor-bearing mice were randomized (n=7 per group) in four groups when the mean tumor volume was ˜100 mm^3. […] Twice a week, each xenograft was measured in two dimensions (a=length; b=width) with a caliper. Tumor volume (V) was determined by the following equation: V=ab^2/2
Tumor volumes were converted into tumor weights assuming a tumor density of 1 mm^3=1 mg. Tumor growth inhibition (TGI) for each group was calculated according to the following formula: […]

Compound | IC50 [1] [µM] | % Toxicity at 0.025 μM [2] [%] | Tumor growth in-vivo, PC3 xenograft [3]
Cn1c(=O)n(-c2ccc(C(C)(C)C#N)nc2)c2c3cc(-c4cnc5ccccc5c4)ccc3ncc21 [Example 2, 2-Methyl-2-(5-(3-methyl-2-oxo-8-(quinolin-3-yl)-2,3-dihydro-1H-imidazo[4,5-c]quinolin-1-yl)pyridin-2-yl)propanenitrile] | 0.3 | 12 | –
Cn1c(=O)n(-c2ccc(C(C)(C)C#N)nc2)c2c3cc(-c4cnc(N)c(C(F)(F)F)c4)ccc3ncc21 [Example 3, 2-(5-(8-(6-Amino-5-(trifluoromethyl)pyridin-3-yl)-3-methyl-2-oxo-2,3-dihydro-1H-imidazo[4,5-c]quinolin-1-yl)pyridin-2-yl)-2-methylpropanenitrile] | 0.06 | 24 | –
COc1ccc(-n2c(=O)n(C)c3cnc4ccc(-c5cnc(N)c(C(F)(F)F)c5)cc4c32)cn1 [Example 19, 8-(6-Amino-5-(trifluoromethyl)pyridin-3-yl)-1-(6-methoxypyridin-3-yl)-3-methyl-1H-imidazo[4,5-c]quinolin-2(3H)-one] | 0.18 | 19 | effectively inhibit tumor growth in-vivo
CS(=O)(=O)O.Cn1c(=O)n(-c2ccc(C(C)(C)C#N)nc2)c2c3cc(-c4cnc(N)c(C(F)(F)F)c4)ccc3ncc21 [Example 3a, 8-(6-Amino-5-(trifluoromethyl)pyridin-3-yl)-1-(6-(2-cyanopropan-2-yl)pyridin-3-yl)-3-methyl-2-oxo-2,3-dihydro-1H-imidazo[4,5-c]quinolin-5-ium methanesulfonate] | – | – | effectively inhibit tumor growth in-vivo
CC(C)(C#N)c1ccc(-n2c(=O)n(CC#N)c3cnc4ccc(-c5cnc(N)c(C(F)(F)F)c5)cc4c32)cn1 [Example 16, 2-(5-(8-(6-Amino-5-(trifluoromethyl)pyridin-3-yl)-3-(cyanomethyl)-2-oxo-2,3-dihydro-1H-imidazo[4,5-c]quinolin-1-yl)pyridin-2-yl)-2-methylpropanenitrile] | 0.013 | 0 | –
